Mass density data for 1 compound are collected here from the NIST ThermoML archive (doi:10.1021/je700100a).

Molecules are shown by their SMILES. Numbers after ± are expanded uncertainties.

A short description of this series: mn = molality of the nth substance listed, in mol/kg. The following applies: 101 kPa, Liquid, Buoyancy - hydrostatic balance with magnetic suspension - one sinker.

Consider `[Cl-].[K+]` [potassium chloride] + O, for which the mass density by setting is: (298.15 K, m1 = 0.0306) 998.491 ± 0.41 kg/m3; (303.15 K, m1 = 0.0105) 996.131 ± 0.41 kg/m3; (303.15 K, m1 = 0.02061) 996.605 ± 0.41 kg/m3.

As usually defined, the mass density is the mass of a sample divided by its volume.
